According to patent US6720346B2, “Thiazole benzamide derivatives and pharmaceutical compositions for inhibiting cell proliferation” (Agouron Pharmaceuticals, Inc., priority 2001, dated 2004):
Where a name gives a salt, the structure may show the parent alone.

What was measured:
HCT-116 cell line = test: Inhibition of cell growth, MTT tetrazolium salt assay; type: cell-based; conditions: for IC50: Homo sapiens, HCT-116, 120 h, MTT, three to five days
Summary of the method: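 Growth inhibition was read as MTT-formazan absorbance at 540 nm, after 4 h with 0.2 mg/mL MTT. Before that, HCT-116 cells had been exposed 3–5 days at 37 °C to compounds in 0.5% (v/v) DMSO, added 4 h after plating. 50% and 90% inhibitory concentrations were taken from semi-log concentration–inhibition plots versus vehicle controls.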

CDK2/cyclin A = target: T1, CDK2/cyclin A (Homo sapiens, UniProt P24941); test: Inhibition of CDK2/cyclin A retinoblastoma kinase activity (Ki; % inhibition); type: biochemical; conditions: for Ki: apparent Ki, CDK2/cyclin A, Rb substrate
T1 construct: made in house; host or cells: CDK2: insect cells (baculovirus); cyclin A: E. coli
Summary of the method: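 Apparent Ki values came from fitting concentration-dependent activity data to competitive (or competitive tight-binding) models, and % inhibition from single 30 nM screens of library compounds. Activity was measured as ³²P/³³P incorporation from 25 μM ATP into an Rb substrate by 10 or 19 nM CDK2/delta cyclin A at 30 °C over 60–75 min, pH 7.4.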

human CDK4/cyclin D3 = target: T2, human CDK4/cyclin D3 (Homo sapiens, UniProt P11802); test: Inhibition of CDK4/cyclin D retinoblastoma kinase activity (Ki; % inhibition); type: biochemical; conditions: for Ki: apparent Ki, CDK4/cyclin D3, Rb substrate
T2 construct: made in house; host or cells: insect cells co-infected with baculovirus vectors
Summary of the method: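 Radiometric filter-binding read-out: Rb residues 386-928 phosphorylated by 5 nM CDK4/cyclin D3(1-264) from baculovirus-infected insect cells, 25 μM ATP, HEPES pH 7.4, 30 °C. Run 20 min, or 60 min for tight-binding inhibitors. Screening at 30 nM theoretical compound; apparent Ki by competitive-inhibition fitting.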

[1] = HCT-116 cells, 0.25 μM compound

T2 sequence (P11802 whole entry): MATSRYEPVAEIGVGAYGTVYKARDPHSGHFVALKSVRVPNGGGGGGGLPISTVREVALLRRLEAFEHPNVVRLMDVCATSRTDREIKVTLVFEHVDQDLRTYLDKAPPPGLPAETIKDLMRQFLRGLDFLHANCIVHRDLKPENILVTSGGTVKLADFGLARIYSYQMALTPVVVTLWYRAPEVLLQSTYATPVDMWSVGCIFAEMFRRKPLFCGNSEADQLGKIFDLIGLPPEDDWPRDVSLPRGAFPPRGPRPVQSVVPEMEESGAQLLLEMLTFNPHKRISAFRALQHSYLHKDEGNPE
T2 sequence (P30281 1-264 partner limits assumed): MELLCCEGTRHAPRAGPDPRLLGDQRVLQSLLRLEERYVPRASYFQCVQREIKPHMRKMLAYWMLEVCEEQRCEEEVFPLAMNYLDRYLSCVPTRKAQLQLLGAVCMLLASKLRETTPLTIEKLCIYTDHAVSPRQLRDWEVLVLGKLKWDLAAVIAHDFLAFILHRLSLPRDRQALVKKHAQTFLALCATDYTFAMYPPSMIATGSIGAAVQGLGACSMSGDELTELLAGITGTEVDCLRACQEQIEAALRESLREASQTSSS

SMILES | HCT-116 % Inhibition at 0.1 μM (HCT-116 cell line; HCT-116 cells, 0.1 μM compound) | HCT-116 % Inhibition at 0.25 μM (HCT-116 cell line; [1]) | CDK2 % Inhibition at 0.03 μM (CDK2/cyclin A; 0.03 μM compound) | CDK4 % Inhibition at 0.03 μM (human CDK4/cyclin D3; 0.03 μM compound) | HCT-116 % Inhibition at 0.1 μM (HCT-116 cell line; HCT-116, at 0.1 μM) | HCT-116 % Inhibition at 0.25 μM (HCT-116 cell line; HCT-116, at 0.25 μM) | CDK2 % Inhibition at 0.03 μM (CDK2/cyclin A; at 0.03 μM) | CDK4 % Inhibition at 0.03 μM (human CDK4/cyclin D3; at 0.03 μM) | other results
Nc1nc(Nc2ccc(C(=O)NCc3ccncc3)cc2)sc1C(=O)c1c(F)cccc1F [Example G277] | 11% | 56% | 8% | 26% |  |  |  |  | 
C[C@@H](NC(=O)c1ccc(Nc2nc(N)c(C(=O)c3c(F)cccc3F)s2)cc1)C(=O)O [Example A65] |  |  |  |  |  |  |  |  | IC50 (HCT-116 cell line): > 500 nM; Ki (CDK2/cyclin A): 160 nM; Ki (human CDK4/cyclin D3): 57 nM
COc1cc(NC(=O)c2ccc(Nc3nc(N)c(C(=O)c4c(F)cccc4F)s3)cc2)cc(OC)c1OC [Example G295] | 10% | 78% | 8% | 22% |  |  |  |  | 
N#CCCN(Cc1ccccc1)C(=O)c1ccc(Nc2nc(N)c(C(=O)c3c(F)cccc3F)s2)cc1 [Example G304] | 15% | 54% | 0% | 20% |  |  |  |  | 
C[C@H](CN(C)C)NC(=O)c1ccc(Nc2nc(N)c(C(=O)c3ccccc3F)s2)cc1 [Example A66, Trifluoroacetic Acid Salt] |  |  |  |  |  |  |  |  | IC50 (HCT-116 cell line): 120 nM; Ki (CDK2/cyclin A): 18 nM; Ki (human CDK4/cyclin D3): 350 nM
Nc1nc(Nc2ccc(C(=O)NCc3ccc(F)cc3Cl)cc2)sc1C(=O)c1c(F)cccc1F [Example G278] | 6% | 76% | 25% | 27% |  |  |  |  | 
CN1CC[C@H](NC(=O)c2ccc(Nc3nc(N)c(C(=O)c4c(F)cccc4F)s3)cc2)C1 [Example A32, 4-[4-Amino-5-(2,6-difluoro-benzoyl)-thiazol-2-ylamino]-N-(1-methyl-pyrrolidin-3S-yl)-benzamide] |  |  |  |  |  |  |  |  | IC50 (HCT-116 cell line): 280 nM; Ki (CDK2/cyclin A): 77 nM; Ki (human CDK4/cyclin D3): 6 nM
Nc1nc(Nc2ccc(C(=O)NCCCO)cc2)sc1C(=O)c1c(F)cccc1F [Example G334] | 6% | 41% | −2% | 8% |  |  |  |  | 
CC(O)c1ccc(NC(=O)c2ccc(Nc3nc(N)c(C(=O)c4c(F)cccc4F)s3)cc2)cc1 (stereo not drawn) [Example G94] |  |  |  |  | 38% | 80% | 10% | 4% | 
Nc1nc(Nc2ccc(C(=O)NCC3CCCCC3)cc2)sc1C(=O)c1c(F)cccc1F [Example G173] |  |  |  |  | 18% | 54% | 14% | 21% | 
Nc1nc(Nc2ccc(C(=O)Nc3ccc4c(c3)S(=O)(=O)NC4=O)cc2)sc1C(=O)c1c(F)cccc1F [Example G101] |  |  |  |  | 10% | 46% | 11% | 19% | 
CC(C)OCCNC(=O)c1ccc(Nc2nc(N)c(C(=O)c3c(F)cccc3F)s2)cc1 [Example G168] |  |  |  |  | 25% | 52% | 4% | 17% | 
Nc1nc(Nc2ccc(C(=O)NCCc3c(Cl)cccc3Cl)cc2)sc1C(=O)c1c(F)cccc1F [Example G372] | 19% | 51% | −21% | 6% |  |  |  |  | 
CN(CCC(O)c1ccccc1)C(=O)c1ccc(Nc2nc(N)c(C(=O)c3c(F)cccc3F)s2)cc1 (stereo not drawn) [Example G370] | 19% | 52% | 22% | 17% |  |  |  |  | 
COCCCNC(=O)c1ccc(Nc2nc(N)c(C(=O)c3c(F)cccc3F)s2)cc1 [Example G98] |  |  |  |  | 22% | 60% | −24% | 11% | 
CC(NC(=O)c1ccc(Nc2nc(N)c(C(=O)c3c(F)cccc3F)s2)cc1)c1ccccc1 (stereo not drawn) [Example G162] |  |  |  |  | 3% | 84% | 25% | 20% | 
CSc1ccc(NC(=O)c2ccc(Nc3nc(N)c(C(=O)c4c(F)cccc4F)s3)cc2)cc1 [Example G255] | 25% | 63% | −25% | 0% |  |  |  |  | 

SMILES | HCT-116 % Inhibition at 0.1 μM (HCT-116 cell line; HCT-116 cells, 0.1 μM compound) | HCT-116 % Inhibition at 0.25 μM (HCT-116 cell line; [1]) | CDK2 % Inhibition at 0.03 μM (CDK2/cyclin A; 0.03 μM compound) | CDK4 % Inhibition at 0.03 μM (human CDK4/cyclin D3; 0.03 μM compound) | HCT-116 % Inhibition at 0.1 μM (HCT-116 cell line; HCT-116, at 0.1 μM) | HCT-116 % Inhibition at 0.25 μM (HCT-116 cell line; HCT-116, at 0.25 μM) | CDK2 % Inhibition at 0.03 μM (CDK2/cyclin A; at 0.03 μM) | CDK4 % Inhibition at 0.03 μM (human CDK4/cyclin D3; at 0.03 μM) | other results
Nc1nc(Nc2ccc(C(=O)N(CCCCO)Cc3ccccc3)cc2)sc1C(=O)c1c(F)cccc1F [Example G351] | 24% | 62% | 0% | −1% |  |  |  |  | 
Nc1nc(Nc2ccc(C(=O)Nc3ccc(Nc4ccccc4)cc3)cc2)sc1C(=O)c1c(F)cccc1F [Example G305] | 29% | 81% | −6% | 11% |  |  |  |  | 
Nc1nc(Nc2ccc(C(=O)N3CCC(Cc4ccccc4)CC3)cc2)sc1C(=O)c1c(F)cccc1F [Example G194] |  |  |  |  | 20% | 49% | 1% | 19% | 
Nc1nc(Nc2ccc(C(=O)N[C@H]3CCc4ccccc43)cc2)sc1C(=O)c1c(F)cccc1F [Example G184] |  |  |  |  | 17% | 58% | 34% | 36% | 
Nc1nc(Nc2ccc(C(=O)N(CCO)Cc3ccccc3)cc2)sc1C(=O)c1c(F)cccc1F [Example G379] | 31% | 54% | 13% | 8% |  |  |  |  | 
Nc1nc(Nc2ccc(C(=O)NC3CCOC3=O)cc2)sc1C(=O)c1c(F)cccc1F (stereo not drawn) [Example G199] | 12% | 52% | 18% | 22% |  |  |  |  | 
Nc1nc(Nc2ccc(C(=O)NCc3cc(Cl)ccc3Cl)cc2)sc1C(=O)c1c(F)cccc1F [Example G286] | 10% | 60% | 23% | 25% |  |  |  |  | 
CN(C)CCN(C)C(=O)c1ccc(Nc2nc(N)c(C(=O)c3c(F)cccc3F)s2)cc1 [Example G57] |  |  |  |  |  | 51% | 17% | 19% | 
Cc1nccc(-c2cccc(NC(=O)c3ccc(Nc4nc(N)c(C(=O)c5c(F)cccc5F)s4)cc3)c2)n1 [Example G87] |  |  |  |  | 54% | 78% | −40% | 13% | 
Cc1ccsc1C(=O)c1sc(Nc2ccc(C(=O)NC[C@@H]3CCCN3C)cc2)nc1N [Example A70, 4-{4-Amino-5-[1-(3-methyl-thiophen-2-yl)-methanoyl]-thiazol-2-ylamino}-N-(1-methyl-pyrrolidin-2S-ylmethyl)-benzamide] |  |  |  |  |  |  |  |  | IC50 (HCT-116 cell line): 23 nM; Ki (CDK2/cyclin A): 6.1 nM; Ki (human CDK4/cyclin D3): 128 nM
COc1ccc(C(F)(F)F)cc1NC(=O)c1ccc(Nc2nc(N)c(C(=O)c3c(F)cccc3F)s2)cc1 [Example G22] |  |  |  |  |  | 50% | 2% | −3% | 
CCN(CC)CCCNC(=O)c1ccc(Nc2nc(N)c(C(=O)c3c(F)cccc3F)s2)cc1 [Example G127] |  |  |  |  | 0% | 61% | 10% | 29% | 
CCN(CC)CCCN(C)C(=O)c1ccc(Nc2nc(N)c(C(=O)c3c(F)cccc3F)s2)cc1 [Example G260] | 30% | 59% | −27% | 1% |  |  |  |  | 
CCCCC(CC)NC(=O)c1ccc(Nc2nc(N)c(C(=O)c3c(F)cccc3F)s2)cc1 (stereo not drawn) [Example G90] |  |  |  |  | 24% | 54% | −30% | 2% | 
CCSCCNC(=O)c1ccc(Nc2nc(N)c(C(=O)c3c(F)cccc3F)s2)cc1 [Example G283] | 16% | 75% | −6% | 10% |  |  |  |  | 
Nc1nc(Nc2ccc(C(=O)NC3CC3)cc2)sc1C(=O)c1c(F)cccc1F [Example G123] |  |  |  |  | 4% | 50% | −5% | 12% | 
CN(C)C1(CNC(=O)c2ccc(Nc3nc(N)c(C(=O)c4c(F)cccc4F)s3)cc2)CCCC1 [Example A77, 4-{[4-Amino-5-(2,6-difluorobenzoyl)-1,3-thiazol-2-yl]amino}-N-{[1-(dimethylamino)cyclopentyl]methyl}benzamide] |  |  |  |  |  |  |  |  | IC50 (HCT-116 cell line): 120 nM; Ki (CDK2/cyclin A): 84 nM; Ki (human CDK4/cyclin D3): 5.2 nM
